In patent publication US11439622B2 (OXFORD UNIVERSITY INNOVATION LIMITED, priority 2015, dated 2022):

Key:
[1] = target: VIM-2 (Veronese metallo-β-lactamase-2) (Escherichia coli, UniProt Q5U7L7); assay: Enzyme inhibition assay, VIM-2; type: biochemical; settings: for IC50: read-out: pIC50 VIM-2 (converted)
Method: (§1) The biological activity of the compounds of the present invention was tested using standard assay protocols.^7 The following representative enzymes NDM-1 (New Delhi metallo-β-lactamase-1), IMP-1 (Imipenemase-1) and VIM-2 (Veronese metallo-β-lactamase-2) were selected from different clinically relevant B1 metallo-β-lactamases.

IMP-1 (Imipenemase-1) = IMP-1 (Imipenemase-1) (Serratia marcescens, UniProt P52699); assay: Enzyme inhibition assay, IMP-1; type: biochemical; settings: for IC50: read-out: pIC50 IMP-1 (converted)
Chain of IMP-1 (Imipenemase-1) (P52699 19-246, looked up, species assumed): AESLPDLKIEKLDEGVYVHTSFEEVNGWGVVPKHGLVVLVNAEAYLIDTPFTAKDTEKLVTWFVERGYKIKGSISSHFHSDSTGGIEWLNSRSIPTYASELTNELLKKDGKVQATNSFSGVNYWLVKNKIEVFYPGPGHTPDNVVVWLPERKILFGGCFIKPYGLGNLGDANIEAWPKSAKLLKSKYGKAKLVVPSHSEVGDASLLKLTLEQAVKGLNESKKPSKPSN
Method: as §1

[2] = target: NDM-1 (New Delhi metallo-β-lactamase-1) (Klebsiella pneumoniae, UniProt C7C422); assay: Enzyme inhibition assay, NDM-1; type: biochemical; settings: for IC50: read-out: pIC50 NDM-1 (converted)
Chain of NDM-1 (New Delhi metallo-β-lactamase-1) (C7C422 29-270, looked up, species assumed): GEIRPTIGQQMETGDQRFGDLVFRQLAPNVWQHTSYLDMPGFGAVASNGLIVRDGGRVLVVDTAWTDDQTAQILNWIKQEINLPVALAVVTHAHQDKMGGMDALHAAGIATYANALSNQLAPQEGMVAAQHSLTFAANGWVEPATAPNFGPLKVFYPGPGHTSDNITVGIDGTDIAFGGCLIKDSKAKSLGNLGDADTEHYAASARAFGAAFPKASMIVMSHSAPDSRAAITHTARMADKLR
Method: as §1

K. pneumoniae IR16 NDM-1 = assay: Meropenem MIC, clinically derived strains; type: cell-based; settings: meropenem alone
Method: (§2) CLSI, Wayne, Pa.) in the absence of each inhibitor or in its presence at the concentration stated. In each case the inhibitor solution was added to broth at 0.1% v/v to achieve the required final concentration; DMSO was used to dissolve inhibitors.
(§3) The results shown in Table 2 reveal that compounds of formula (I) are active in cells, including clinically relevant bacterial strains. Further studies were carried out to determine if compound of formula (I) potentiates BLA activity in clinically derived strains containing IMP-4, […] or NDM-1, which are the most commonly observed MBLs in clinical isolates.

K. pneumoniae 5055 IMP-1 = assay: Meropenem MIC, clinically derived strains; type: cell-based; settings: meropenem alone
Method: as §2, §3

K. pneumoniae B19 IMP-4 = assay: Meropenem MIC, clinically derived strains; type: cell-based; settings: meropenem alone
Method: as §2, §3

K. pneumoniae B12 IMP-4 = assay: Meropenem MIC, clinically derived strains; type: cell-based; settings: meropenem alone
Method: as §2, §3

K. pneumoniae A34 VIM-4 = assay: Meropenem MIC, clinically derived strains; type: cell-based; settings: meropenem alone
Method: as §2, §3

[3] = system: K. pneumoniae 5055 (control); assay: Meropenem MIC, CLSI broth microdilution; type: cell-based; settings: meropenem alone
Method: as §2
For initial evaluations of the in vitro cell based activity of indole carboxylates we used well characterized bacterial strains (e.g. K. pneumoniae 5055; E. coli ATCC 25713) transformed with broad host range plasmids (e.g. pSU18 and derivatives) encoding few metallo-β-lactamases produced using their physiological (integron) promoters. We also tested a clinical strain, IR60 in the initial studies.^8

| SMILES | IC50 [1] [nM] | IC50 (IMP-1 (Imipenemase-1)) [nM] | IC50 [2] [nM] | other results |
| --- | --- | --- | --- | --- |
| COc1cccc(-c2c(C(=O)O)[nH]c3c(C(C)C)cccc23)c1OC [Example 77, 3-(2,3-dimethoxyphenyl)-7-isopropyl-1H-indole-2-carboxylic acid] | 6.31 | 12600 | 200 |  |
| CC(C)c1cccc2c(-c3cc(F)cc(F)c3)c(C(=O)O)[nH]c12 [Example 78, 3-(3,5-difluorophenyl)-7-isopropyl-1H-indole-2-carboxylic acid] | 3.98 | 126 | 10 |  |
| CC(C)c1cccc2c(-c3ccc(Cn4cccn4)cc3)c(C(=O)O)[nH]c12 [Example 79, 3-(4-((1H-pyrazol-1-yl)methyl)phenyl)-7-isopropyl-1H-indole-2-carboxylic acid] | 3.98 | 15.8 | 0.501 |  |
| CC(C)c1cccc2c(-c3ccc(Cn4cncn4)cc3)c(C(=O)O)[nH]c12 [Example 80, 3-(4-((1H-1,2,4-triazol-1-yl)methyl)phenyl)-7-isopropyl-1H-indole-2-carboxylic acid] | 10 | 20 | 0.631 |  |
| CN(C)S(=O)(=O)c1ccc(-c2c(C(=O)O)[nH]c3c(CCOc4ccccc4)cccc23)cc1 [Example 81, 3-(4-(N,N-dimethylsulfamoyl)phenyl)-7-(2-phenoxyethyl)-1H-indole-2-carboxylic acid] | 63.1 | 100 | 1.58 |  |
| Cc1c(Oc2ccccc2)ccc2c(-c3ccc(S(=O)(=O)N(C)C)cc3)c(C(=O)O)[nH]c12 [Example 82, 3-(4-(N,N-dimethylsulfamoyl)phenyl)-7-methyl-6-phenoxy-1H-indole-2-carboxylic acid] | 158 | 501 | 3.98 |  |
| CN(C)C(=O)c1ccc(-c2c(C(=O)O)[nH]c3c(CCOc4ccccc4)cccc23)cc1 [Example 83, 3-(4-(dimethylcarbamoyl)phenyl)-7-(2-phenoxyethyl)-1H-indole-2-carboxylic acid] | 100 | 63.1 | 3.98 |  |
| O=C(O)c1[nH]c2c(CCOc3ccccc3)cccc2c1-c1ccc(Cl)cc1 [Example 84, 3-(4-chlorophenyl)-7-(2-phenoxyethyl)-1H-indole-2-carboxylic acid] | 20 | 631 | 37.2 |  |
| Cc1c(Oc2ccccc2)ccc2c(-c3ccc(Cl)cc3)c(C(=O)O)[nH]c12 [Example 85, 3-(4-chlorophenyl)-7-methyl-6-phenoxy-1H-indole-2-carboxylic acid] | 158 | 1000 | 100 |  |
| Cc1c(Oc2ccccc2)ccc2c(-c3ccc(C(=O)N(C)C)cc3)c(C(=O)O)[nH]c12 [Example 86, 3-(4-(dimethylcarbamoyl)phenyl)-7-methyl-6-phenoxy-1H-indole-2-carboxylic acid] | 575 | 646 | 7.41 |  |
| CNS(=O)(=O)c1ccc(-c2c(C(=O)O)[nH]c3c(C(C)C)cccc23)cc1 [Example 88, 7-isopropyl-3-(4-(N-methylsulfamoyl)phenyl)-1H-indole-2-carboxylic acid] | 10.2 | 53.7 | 4.27 |  |
| CC(C)c1cccc2c(-c3ccc(C(=O)O)cc3)c(C(=O)O)[nH]c12 [Example 91, 3-(4-carboxyphenyl)-7-isopropyl-1H-indole-2-carboxylic acid] | 7.24 | 44.7 | 3.39 |  |
| CC(C)c1cccc2c(-c3ccc(CN4CCOCC4)cc3)c(C(=O)O)[nH]c12 [Example 94, 7-isopropyl-3-(4-(morpholinomethyl)phenyl)-1H-indole-2-carboxylic acid] | 105 | 105 | 5.89 |  |
| CC(C)c1cccc2c(-c3ccc(S(=O)(=O)N(C)C)cc3)c(-c3nnn[nH]3)[nH]c12 [Example 102, 4-[7-isopropyl-2-(1H-tetrazol-5-yl)-1H-indol-3-yl]-N,N-dimethyl-benzenesulfonamide] | 407 | 13200 | 10 |  |
| Cc1cccc2c(C3CCCCC3)c(C(=O)O)[nH]c12 [Example 103] | 3160 | 79400 | 79.4 |  |
| Cc1cccc2c(C3CCCC3)c(C(=O)O)[nH]c12 [Example 104, 3-cyclopentyl-7-methyl-1H-indole-2-carboxylic acid] | 12600 | 50100 | 251 |  |
| Cc1cccc2c(C3CCN(C(=O)OC(C)(C)C)CC3)c(C(=O)O)[nH]c12 [Example 105, 3-(1-tert-butoxycarbonyl-4-piperidyl)-7-methyl-1H-indole-2-carboxylic acid] | 2510 | 31600 | 158 |  |
| O=C(O)c1[nH]c2c(C3CC3)cccc2c1-c1ccc(F)cc1 [Example 106, 7-cyclopropyl-3-(4-fluorophenyl)-1H-indole-2-carboxylic acid] | 50.1 | 501 | 12.6 |  |
| Cc1cccc2c(Cc3ccc(Cl)cc3)c(C(=O)O)[nH]c12 [Example 107, 3-[(4-chlorophenyl)methyl]-7-methyl-1H-indole-2-carboxylic acid] | 1580 | 3980 | 631 |  |
| O=C(O)c1[nH]c2c(CCO)cccc2c1-c1ccc(F)cc1 [Example 108, 3-(4-fluorophenyl)-7-(2-hydroxyethyl)-1H-indole-2-carboxylic acid] | 794 | 3160 | 50.1 |  |
| COc1cccc(-c2c(C(=O)O)[nH]c3c(C)cccc23)c1OC [Example 116, 3-(2,3-dimethoxyphenyl)-7-methyl-1H-indole-2-carboxylic acid] | 39.8 | > 100000 | 1260 |  |
| Cc1noc(C)c1-c1c(C(=O)O)[nH]c2c(C)cccc12 [Example 117, 3-(3,5-dimethylisoxazol-4-yl)-7-methyl-1H-indole-2-carboxylic acid] | 200 | > 100000 | 1260 |  |
| Cc1ccc2c(-c3ccc(F)cc3)c(C(=O)O)[nH]c2c1 [Example 119, 3-(4-fluorophenyl)-6-methyl-1H-indole-2-carboxylic acid] | 15800 | 79400 | 2000 |  |
| Cc1cccc2c1cc(C(=O)O)n2-c1ccc(F)cc1 [Example 120, 1-(4-fluorophenyl)-4-methyl-1H-indole-2-carboxylic acid] | 31600 | > 100000 | > 20000 |  |
| CC(C)NC(=O)c1[nH]c2c(C(C)C)cccc2c1-c1ccc(S(=O)(=O)N(C)C)cc1 [Example 123, 3-(4-(N,N-dimethylsulfamoyl)phenyl)-N,7-diisopropyl-1H-indole-2-carboxamide] |  |  |  | pIC50 VIM-2 [1]: N.I.; pIC50 IMP-1 (IMP-1 (Imipenemase-1)): N.I.; pIC50 NDM-1 [2]: N.I. |
| CC(C)c1cccc2c(-c3ccc(S(=O)(=O)N(C)C)cc3)c(C(=O)Nc3nccs3)[nH]c12 [Example 124, 3-(4-(N,N-dimethylsulfamoyl)phenyl)-7-isopropyl-N-(thiazol-2-yl)-1H-indole-2-carboxamide] |  |  |  | pIC50 VIM-2 [1]: N.I.; pIC50 IMP-1 (IMP-1 (Imipenemase-1)): N.I.; pIC50 NDM-1 [2]: N.I. |
| CC(C)c1cccc2c(-c3ccc(S(=O)(=O)N(C)C)cc3)c(C(=O)Nc3ccccc3)[nH]c12 [Example 127, 3-(4-(N,N-dimethylsulfamoyl)phenyl)-7-isopropyl-N-phenyl-1H-indole-2-carboxamide] |  |  | 398 | pIC50 VIM-2 [1]: N.I.; pIC50 IMP-1 (IMP-1 (Imipenemase-1)): N.I. |
| C[C@@H](O)[C@H]1C(=O)N2C(C(=O)O)=C(S[C@@H]3CN[C@H](C(=O)N(C)C)C3)[C@H](C)[C@H]12 [Meropenem, meropenem, reference compound] |  |  |  | Meropenem MIC (K. pneumoniae IR16 NDM-1): 16 µg/mL; Meropenem MIC (K. pneumoniae 5055 IMP-1): 16 µg/mL; Meropenem MIC (K. pneumoniae B19 IMP-4): 16 µg/mL; Meropenem MIC (K. pneumoniae B12 IMP-4): 16 µg/mL; Meropenem MIC (K. pneumoniae A34 VIM-4): 64 µg/mL; Meropenem MICs [3]: < 0.25 µg/mL |
